# Test results taken from patent US8912121B2, “Herbicidal compositions comprising 4-amino-3-chloro-5-fluoro-6-(4-chloro-2-fluoro-3-methoxyphenyl)pyridine-2-carboxylic acid or a derivative thereof and certain PS II inhibitors” (Dow Agrosciences LLC, priority 2012, dated 2014).
# Values joined by “and” are separate entries in the source; they are usually repeats but may differ in a detail not shown here. Equal values may be shown once. Read-outs that look alike come from different tables or passages of the source.
# What was measured:
# Assay in all cases: Postemergence foliar-applied mixtures, direct seeded rice, greenhouse
# [1] = test system: ECHCO (Echinochloa colona, junglerice); assay type: in vivo, Echinochloa colona (L.) Link
# In short: (§1)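 Greenhouse plants in loam/grit soil (about 29/26°C, 14 h photoperiod) sprayed post-emergence at first to fourth true leaf stage at 187 L/ha. Compound A dosed as acid equivalent, partner PSII herbicides as active ingredient, alone and in mixtures, in spray solutions containing 1.25% crop oil concentrate.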
# [2] = test system: ECHCG (Echinochloa crusgalli, barnyardgrass); assay type: in vivo, Echinochloa crusgalli (L.) Beauv.
# Experimental: Seeds or nutlets of the desired test plant species were planted in a soil matrix prepared by mixing a loam or sandy loam soil (e.g., 28.6 percent silt, 18.8 percent clay, and 52.6 percent sand, with a pH of about 5.8 and an organic matter content of about 1.8 percent) and calcareous grit in an 80 to 20 ratio. The soil matrix was contained in plastic pots with a volume of 1 quart and a surface area of 83.6 square centimeters (cm^2). […] The plants were grown for 8-22 days in a greenhouse with an approximate 14 h photoperiod which was maintained at about 29° C. during the day and 26° C. during the night. Nutrients (Peters Excel® 15-5-15 5-Ca 2-Mg and iron chelate) were applied in the irrigation solution as needed and water was added on a regular basis. Supplemental lighting was provided with overhead metal halide 1000-Watt lamps as necessary. The plants were employed for testing when they reached the first through fourth true leaf stage.
# (§2) Treatments consisted of the acid or esters of 4-amino-3-chloro-5-fluoro-6-(4-chloro-2-fluoro-3-methoxy-phenyl) pyridine-2-carboxylic acid (Compound A), each formulated as an SC (suspension concentrate), and various herbicidal components alone and in combination. Forms of compound A were applied on an acid equivalent basis.
# (§3) Other herbicidal components were applied on an active ingredient basis and included Photosystem II (PSII)-inhibiting herbicides propanil formulated as Stam® M4 EC, bentazon-sodium formulated as Basagran®, atrazine formulated as Atrazine 90 WDG, bromoxynil octanoate ester formulated as Buctril®, simetryne (technical grade material), simazine formulated as Princep® Caliber 90, ioxynil (technical grade material), cyanazine (technical grade material), and hexazinone (technical grade material).
# (§4) For treatments comprised of formulated compounds, measured amounts of compounds were placed individually in 25 mL glass vials and diluted in a volume of 1.25% (v/v) Agri-Dex® crop oil concentrated to obtain 12× stock solutions. […] Application solutions were prepared by adding an appropriate amount of each stock solution (e.g., 1 mL) and diluted to the appropriate final concentrations with the addition of 10 mL of an aqueous mixture of 1.25% (v/v) crop oil concentrate so that the final spray solutions contained 1.25+/−0.05% (v/v) crop oil concentrate.
# (§5) For treatments comprised of technical compounds, weighed amounts can be placed individually in 25 mL glass vials and dissolved in a volume of 97:3 v/v acetone/DMSO to obtain 12× stock solutions. […] Application solutions can be prepared by adding an appropriate amount of each stock solution (e.g., 1 mL) and diluted to the appropriate final concentrations with the addition of 10 mL of an aqueous mixture of 1.5% (v/v) crop oil concentrate so that the final spray solutions contain 1.25% (v/v) crop oil concentrate. When technical materials are used, the concentrated stock solutions can be added to the spray solutions so that the final acetone and DMSO concentrations of the application solutions are 16.2% and 0.5%, respectively.
# For treatments comprised of formulated and technical compounds, weighed amounts of the technical materials were placed individually in 25 mL glass vials and dissolved in a volume of 97:3 v/v acetone/DMSO to obtain 12× stock solutions, and measured amounts of the formulated compounds were placed individually in 25 mL glass vials and diluted in a volume of 1.5% (v/v) crop oil concentrate or water to obtain 12× stock solutions. […] Application solutions were prepared by adding an appropriate amount of each stock solution (eg, 1 mL) and diluted to the appropriate final concentrations with the addition of an appropriate amount of an aqueous mixture of 1.5% (v/v) crop oil concentrate so that the final spray solutions contained 1.25% (v/v) crop oil concentrate.
# [3] = test system: BRAPP (Brachiaria platyphylla, broadleaf signalgrass); assay type: in vivo, Brachiaria platyphylla (Griseb.) Nash
# Text: Seeds or nutlets of the desired test plant species were planted in a soil matrix prepared by mixing a loam or sandy loam soil (e.g., 28.6 percent silt, 18.8 percent clay, and 52.6 percent sand, with a pH of about 5.8 and an organic matter content of about 1.8 percent) and calcareous grit in an 80 to 20 ratio. The soil matrix was contained in plastic pots with a volume of 1 quart and a surface area of 83.6 square centimeters (cm^2). When required to ensure good germination and healthy plants, a fungicide treatment and/or other chemical or physical treatment was applied. The plants were grown for 8-22 days in a greenhouse with an approximate 14 h photoperiod which was maintained at about 29° C. during the day and 26° C. during the night. Nutrients (Peters Excel® 15-5-15 5-Ca 2-Mg and iron chelate) were applied in the irrigation solution as needed and water was added on a regular basis. Supplemental lighting was provided with overhead metal halide 1000-Watt lamps as necessary. The plants were employed for testing when they reached the first through fourth true leaf stage.
# as §2, §3
# Treatment requirements were calculated based upon the rates being tested, the concentration of active ingredient or acid equivalent in the formulation, and a 12 mL application volume at a rate of 187 L/ha.
# as §4, §5
# For treatments comprised of formulated and technical compounds, weighed amounts of the technical materials were placed individually in 25 mL glass vials and dissolved in a volume of 97:3 v/v acetone/DMSO to obtain 12× stock solutions, and measured amounts of the formulated compounds were placed individually in 25 mL glass vials and diluted in a volume of 1.5% (v/v) crop oil concentrate or water to obtain 12× stock solutions. […]
# [4] = test system: IPOHE (Ipomoea hederacea, ivyleaf morningglory); assay type: in vivo, Ipomoea hederacea Jacq.; conditions: post-emergence
# In short: as §1
smiles,measurement,setting,value
"COc1c(Cl)ccc(-c2nc(C(=O)OCc3ccccc3)c(Cl)c(N)c2F)c1F [Compound A Benzyl Ester, benzyl ester of 4-amino-3-chloro-5-fluoro-6-(4-chloro-2-fluoro-3-methoxy-phenyl)pyridine-2-carboxylic acid]",Visual Weed Control (%) Obs,"[1]; 4.38 g ae/ha, 21 DAA",60%
same,Visual Weed Control (%) Obs,"[1]; 8 g ae/ha, 20 DAA",65%
same,Visual Weed Control (%) Obs,"[1]; 8 g ae/ha, 21 DAA",75% and 50%
same,Visual Weed Control (%) Obs,"[1]; 8.75 g ae/ha, 21 DAA",68%
same,Visual Weed Control (%) Obs,"[1]; 16 g ae/ha, 20 DAA",85%
same,Visual Weed Control (%) Obs,"[1]; 16 g ae/ha, 21 DAA",85% and 65%
same,Visual Weed Control (%) Obs,"[1]; 17.5 g ae/ha, 21 DAA",83%
same,Visual Weed Control (%) Obs,"[1]; 32 g ae/ha, 20 DAA",95%
same,Visual Weed Control (%) Obs,"[1]; 32 g ae/ha, 21 DAA",95% and 85%
same,Visual Weed Control (%) Obs,"[2]; 4.38 g ae/ha, 21 DAA",48%
same,Visual Weed Control (%) Obs,"[2]; 8 g ae/ha, 20 DAA",70%
same,Visual Weed Control (%) Obs,"[2]; 8 g ae/ha, 21 DAA",45%
same,Visual Weed Control (%) Obs,"[2]; 8 g ae/ha, 22 DAA",35%
same,Visual Weed Control (%) Obs,"[2]; 8.75 g ae/ha, 21 DAA",55%
same,Visual Weed Control (%) Obs,"[2]; 16 g ae/ha, 20 DAA",90%
same,Visual Weed Control (%) Obs,"[2]; 16 g ae/ha, 21 DAA",85%
same,Visual Weed Control (%) Obs,"[2]; 16 g ae/ha, 22 DAA",65%
same,Visual Weed Control (%) Obs,"[2]; 17.5 g ae/ha, 21 DAA",85%
same,Visual Weed Control (%) Obs,"[2]; 32 g ae/ha, 20 DAA",90%
same,Visual Weed Control (%) Obs,"[2]; 32 g ae/ha, 21 DAA",90%
same,Visual Weed Control (%) Obs,"[2]; 32 g ae/ha, 22 DAA",80%
same,Visual Weed Control (%) Obs,"[3]; 4.38 g ae/ha, 22 DAA",55%
same,Visual Weed Control (%) Obs,"[3]; 8 g ae/ha, 20 DAA",55%
same,Visual Weed Control (%) Obs,"[3]; 8.75 g ae/ha, 22 DAA",70%
same,Visual Weed Control (%) Obs,"[3]; 16 g ae/ha, 20 DAA",90%
same,Visual Weed Control (%) Obs,"[3]; 17.5 g ae/ha, 22 DAA",75%
same,Visual Weed Control (%) Obs,"[3]; 32 g ae/ha, 20 DAA",90%
same,pest or weed control at 32 g/ha,"[4]; 480 h, read-out: Visual Weed Control (%) Obs, 32 g ae/ha, 20 DAA",55%
same,pest or weed control at 4.38 g/ha,"[4]; 504 h, read-out: Visual Weed Control (%) Obs, 4.38 g ae/ha, 21 DAA",0%
same,pest or weed control at 8 g/ha,"[4]; 504 h, read-out: Visual Weed Control (%) Obs, 8 g ae/ha, 21 DAA",10%
same,pest or weed control at 8.75 g/ha,"[4]; 504 h, read-out: Visual Weed Control (%) Obs, 8.75 g ae/ha, 21 DAA",15%
same,pest or weed control at 16 g/ha,"[4]; 504 h, read-out: Visual Weed Control (%) Obs, 16 g ae/ha, 21 DAA",25%
same,pest or weed control at 17.5 g/ha,"[4]; 504 h, read-out: Visual Weed Control (%) Obs, 17.5 g ae/ha, 21 DAA",38%
same,pest or weed control at 17.5 g/ha,"[4]; 504 h, read-out: Visual Weed Control (%) Obs, 17.5 g ae/ha, 21 DAA (second set, r27-r31)",38%
same,pest or weed control at 32 g/ha,"[4]; 504 h, read-out: Visual Weed Control (%) Obs, 32 g ae/ha, 21 DAA",60%
same,pest or weed control at 35 g/ha,"[4]; 504 h, read-out: Visual Weed Control (%) Obs, 35 g ae/ha, 21 DAA",55%
